In patent US7524853B2 (Solvay Pharmaceuticals B.V., priority 2003, dated 2009) one finds inhibition data, which are given here for 14 molecules.

The structures appear in SMILES notation.

Common to all, as to type: cell-based
For experiment [1], the target named is T1, 17β-hydroxysteroid dehydrogenase type 1 (17β-HSD type 1) (Homo sapiens, UniProt P14061).
T1 construct: expressed in transfected cells; host or cells: MCF-7
T1 sequence (P14061 1-328): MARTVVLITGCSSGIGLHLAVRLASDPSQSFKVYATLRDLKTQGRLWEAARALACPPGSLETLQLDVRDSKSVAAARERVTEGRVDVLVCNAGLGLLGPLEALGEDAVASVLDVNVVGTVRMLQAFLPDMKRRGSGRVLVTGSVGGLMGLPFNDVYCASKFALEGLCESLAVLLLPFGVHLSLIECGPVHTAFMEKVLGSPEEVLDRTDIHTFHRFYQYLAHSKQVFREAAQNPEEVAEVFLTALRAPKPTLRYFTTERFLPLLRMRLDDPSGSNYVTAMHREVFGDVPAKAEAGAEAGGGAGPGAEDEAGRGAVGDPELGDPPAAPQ
The experiment can be described thus: Inhibition of 17β-HSD type 1 in MCF-7 cells stably expressing the isoenzyme (tritium labeled estrone conversion, HPLC). Particulars: MCF7, MCF-7 cells expressing 17β-HSD type 1, 2 nM tritium labeled estrone; for inhibition at 1 µM: 1 μM test compound, read-out: % Inhibition HSD1 1 μM; for inhibition at 10 µM: 10 μM test compound, read-out: % Inhibition HSD1 10 μM. The source says: (§1) Biological Testing Materials and Methods 1. Inhibition of the 17β-hydroxysteroid dehydrocienase type 1, type 2 and type 3 enzyme
(§2) The compounds were screened in respect of 17β-HSD enzyme activity in vitro on established MCF-7 cell lines, each stably expressing one of the respective 17β-HSD isoenzymes. The interconversion of substrate by each isoenzyme and the 17β-HSD inhibiting activity of chemical compounds in these cell lines were detected by HPLC system.
(§3) Varying amounts of the test compounds were incubated in the growth medium of the 17β-HSD expressing cells together tritium labeled substrate (2 nM estrone for 17β-HSD type 1; 2 nM estradiol for 17β-HSD type 2; and 2 nM androstenedione for 17β-HSD type 3). The medium samples were removed after exact incubation time and the reaction is stopped by trichloroacetic acid (TCA). The samples were analyzed by HPLC-coupled flow scintillation analysis.
(§4) For each enzyme type, the HSD-inhibiting activity of an individual test compound was calculated by comparing the conversion of a control sample without any test compound (referred to as “Negative Control”) to the (reduced) conversion of the test sample containing the particular compound to be tested (referred to as “Test Sample”).
(§5) Two concentrations of each compound were used. The number of the compound refers to the numbers indicated in the Experimental Section.

For experiment [2], the target named is T2, 17β-hydroxysteroid dehydrogenase type 3 (17β-HSD type 3) (Homo sapiens, UniProt P37058).
T2 construct: expressed in transfected cells; host or cells: MCF-7
T2 sequence (P37058 1-310): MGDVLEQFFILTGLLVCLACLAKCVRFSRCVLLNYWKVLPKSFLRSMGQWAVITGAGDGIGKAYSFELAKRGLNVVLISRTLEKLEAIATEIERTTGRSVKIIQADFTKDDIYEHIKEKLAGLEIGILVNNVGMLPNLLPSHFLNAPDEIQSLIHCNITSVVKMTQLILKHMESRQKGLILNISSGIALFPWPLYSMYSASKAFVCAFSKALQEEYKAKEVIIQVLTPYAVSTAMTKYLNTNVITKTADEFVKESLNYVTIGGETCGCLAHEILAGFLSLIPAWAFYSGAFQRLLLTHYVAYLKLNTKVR
Kind of experiment: Inhibition of 17β-HSD type 3 in MCF-7 cells stably expressing the isoenzyme (tritium labeled androstenedione conversion, HPLC). Particulars: MCF7, MCF-7 cells expressing 17β-HSD type 3, 2 nM tritium labeled androstenedione; for inhibition at 1 µM: 1 μM test compound, read-out: % Inhibition HSD3 1 μM; for inhibition at 10 µM: 10 μM test compound, read-out: % Inhibition HSD3 10 μM.
Text: as §1, §2, §3, §4, §5

Experiment [3] has as its target T3, 17β-hydroxysteroid dehydrogenase type 2 (17β-HSD type 2) (Homo sapiens, UniProt P37059).
T3 construct: expressed in transfected cells; host or cells: MCF-7
T3 sequence (P37059 1-387): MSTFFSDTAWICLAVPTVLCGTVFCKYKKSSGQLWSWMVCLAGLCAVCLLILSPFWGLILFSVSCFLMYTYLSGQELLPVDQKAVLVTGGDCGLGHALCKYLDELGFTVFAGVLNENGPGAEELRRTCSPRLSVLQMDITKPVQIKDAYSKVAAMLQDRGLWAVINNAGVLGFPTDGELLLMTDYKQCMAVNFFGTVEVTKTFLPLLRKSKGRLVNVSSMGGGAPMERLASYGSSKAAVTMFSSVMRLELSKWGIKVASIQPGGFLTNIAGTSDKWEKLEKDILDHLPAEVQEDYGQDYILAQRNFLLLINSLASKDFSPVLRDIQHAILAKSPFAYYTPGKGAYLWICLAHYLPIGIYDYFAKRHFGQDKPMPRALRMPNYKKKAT
The experiment can be described thus: Inhibition of 17β-HSD type 2 in MCF-7 cells stably expressing the isoenzyme (tritium labeled estradiol conversion, HPLC). Particulars: MCF7, MCF-7 cells expressing 17β-HSD type 2, 2 nM tritium labeled estradiol; for inhibition at 1 µM: 1 μM test compound, read-out: % Inhibition HSD2 1 μM; for inhibition at 10 µM: 10 μM test compound, read-out: % Inhibition HSD2 10 μM.
Text: as §1, §2, §3, §4, §5

Broadly, the inhibition is the change of the read-out against control, counted positive when it falls. Turning to `CCCc1nc2sc3c(O)c(Br)ccc3c2c(=O)n1Cc1ccc(Br)o1` [No. 107, 7-Bromo-3-(5-bromofuran-2-ylmethyl)-8-hydroxy-2-propyl-3H-benzo[4,5]thieno[2,3-d]pyrimidin-4-one], the inhibition at 1 µM is -14.2% in experiment [1], 3.2% in experiment [2] and 25.4% in experiment [3]. Also, the inhibition at 10 µM turned out to be 24.7% in experiment [1], 44.3% in experiment [2] and 45.7% in experiment [3].

`COc1cc(-c2nc3sc4c(OC)cccc4c3c(=O)n2CC(C)C)cc(OC)c1OC` [No. 136, 3-Isobutyl-8-methoxy-2-(3,4,5-trimethoxyphenyl)-3H-benzo[4,5]thieno[2,3-d]pyrimidin-4-one]: the inhibition at 1 µM in experiment [1] is 3.6%; in experiment [2], 3.5%; in experiment [3] it was 23.2%. Besides, the inhibition at 10 µM came to 8.5% in experiment [1], 11% in experiment [2] and 8.8% in experiment [3].

As to `CCCc1nc2sc3c(c2c(=O)n1Cc1ccco1)CCCC3` [No. 101, 3-(Furan-2-ylmethyl)-2-propyl-5,6,7,8-tetrahydro-3H-benzo[4,5]thieno[2,3-d]pyrimidin-4-one], the results for the inhibition at 1 µM in experiment [1], in experiment [2] and in experiment [3] were 14.1%, 5.7% and 18%, respectively. In addition, the inhibition at 10 µM was found to be 26% in experiment [1], 7.8% in experiment [2] and 30% in experiment [3].

As to `CCOC(=O)c1nc2sc3c(c2c(=O)n1-c1ccccc1)CCCC3` [No. 40, 4-Oxo-3-phenyl-3,4,5,6,7,8-hexahydro-benzo[4,5]thieno[2,3-d]pyrimidine-2-carboxylic acid ethyl ester], the inhibition at 1 µM in experiment [1] amounted to 15.6%; in experiment [2], 3.8%; in experiment [3] it was 13.8%. Moreover, the results for the inhibition at 10 µM in experiment [1], in experiment [2] and in experiment [3] were 25%, 16.2% and 5.3%, respectively.

As to `COc1cccc(-c2nc3sc4c(OC(C)=O)cccc4c3c(=O)n2Cc2ccccc2)c1` [No. 84, Acetic acid 3-benzyl-4-oxo-2-(m-methoxyphenyl)-3,4-dihydro-benzo[4,5]thieno[2,3-d]pyrimidin-8-yl ester], the inhibition at 1 µM worked out at 10.2% in experiment [1], 4% in experiment [2] and 26.4% in experiment [3]. The inhibition at 10 µM in experiment [1] is 22.6%; in experiment [2], 33.5%; in experiment [3], 63.6%.

As for `CCCCn1c(-c2ccccc2OC)nc2sc3c(O)cccc3c2c1=O` [No. 633, 3-Butyl-8-hydroxy-2-(2-methoxy-phenyl)-3H-benzo[4,5]thieno[2,3-d]pyrimidin-4-one], the inhibition at 1 µM in experiment [1] worked out at 30.6%; in experiment [2], 62.3%; in experiment [3] it was 33.2%. Besides, the inhibition at 10 µM in experiment [1] is 60.9%; in experiment [2] it was 91.7%; in experiment [3] it was 64.6%.

On to `COc1cc(-c2nc3sc4c(c3c(=O)n2Cc2ccco2)CCCC4)cc(OC)c1OC` [No. 119, 3-Furan-2-ylmethyl-2-(3,4,5-trimethoxylphenyl)-5,6,7,8-tetrahydro-3H-benzo[4,5]thieno[2,3-d]pyrimidin-4-one], for which the inhibition at 1 µM in experiment [1] worked out at 9.6%; in experiment [2], 2.3%; in experiment [3], 25.1%. The inhibition at 10 µM in experiment [1] worked out at 27.9%; in experiment [2], 19.1%; in experiment [3] it was 30.1%.

As to `O=Cc1nc2c(c(=O)n1Cc1ccccc1)C1=C(CCCC1)S2(=O)=O` [No. 33, 3-Benzyl-4,9,9-trioxo4,5,6,7,8,9-hexahydro-3H-9lambda*6*-benzo[4,5]thieno[2,3-d]pyrimidine-2-carbaldehyde], the figures for the inhibition at 1 µM in experiment [1], in experiment [2] and in experiment [3] were 17.6%, 1.9% and 16.3%, respectively. Besides, the inhibition at 10 µM was determined as 67.3% in experiment [1], 0.1% in experiment [2] and 18.7% in experiment [3].

Take `O=C1c2sc3nc(-c4cccs4)n(Cc4ccccc4)c(=O)c3c2CCC1Br` (centres unmarked): the inhibition at 1 µM in experiment [1] stood at 28.5%; in experiment [2], 21.8%; in experiment [3], 32.8%. The inhibition at 10 µM was 23.2% in experiment [1], 25.6% in experiment [2] and 48.4% in experiment [3].

Take `COc1ccc(-c2nc3sc4c(c3c(=O)n2Cc2ccccc2)CCC(Br)(Br)C4=O)cc1` [No. 147, 3-Benzyl-7,7-dibromo-2-p-methoxyphenyl-6,7-dihydro-3H,5H-benzo[4,5]thieno[2,3-d]pyrimidine-4,8-dione]: the values for the inhibition at 1 µM in experiment [1], in experiment [2] and in experiment [3] were 11.4%, 10.3% and 0.1%, respectively. Moreover, the figures for the inhibition at 10 µM in experiment [1], in experiment [2] and in experiment [3] were 12.5%, 9.1% and 17.2%, respectively.

As for `COCCn1c(-c2cc(OC)c(OC)c(OC)c2Br)nc2sc3c(O)cccc3c2c1=O` [No. 112, 2-(2-Bromo-3,4,5-trimethoxyphenyl)-8-hydroxy-3-(2-methoxyethyl)-3H-benzo[4,5]thieno[2,3-d]pyrimidin-4-one], the figures for the inhibition at 1 µM in experiment [1], in experiment [2] and in experiment [3] were 28.3%, 7% and 14.6%, respectively. The inhibition at 10 µM is 54.4% in experiment [1], 49.4% in experiment [2] and 46.3% in experiment [3].

As for `O=c1c2c3c(sc2nc(-c2cccs2)n1Cc1ccccc1)CCCC3` [No. 61, 3-Benzyl-2-thiophen-2-yl-5,6,7,8-tetrahydro-3H-benzo[4,5]thieno[2,3-d]pyrimidin-4-one], the values for the inhibition at 1 µM in experiment [1], in experiment [2] and in experiment [3] were 17.7%, 20% and 25.7%, respectively. Further, the inhibition at 10 µM in experiment [1] amounted to 26.2%; in experiment [2], 26.4%; in experiment [3] it was 23.8%.

Take `COc1cc(-c2nc3sc4ccccc4c3c(=O)n2Cc2ccccc2)c(Br)c(OC)c1OC` [No. 51, 3-benzyl-2-(2-bromo-3,4,5-trimethoxyphenyl)-3H-benzo[4,5]thieno[2,3-d]pyrimidin-4-one]: in experiment [1], the inhibition at 1 µM was found to be 9.9% and the inhibition at 10 µM was determined as 9.1%. Also, in experiment [3], the inhibition at 1 µM is 16.6% and the inhibition at 10 µM was 30.7%.

For the molecule `COc1cc(-c2nc3sc4c(O)cccc4c3c(=O)n2CC(C)C)cc(OC)c1OC` [No. 151, 8-Hydroxy-3-isobutyl-2-(3,4,5-trimethoxyphenyl)-3H-benzo[4,5]thieno[2,3-d]pyrimidin-4-one], in experiment [1], the inhibition at 1 µM is 21.2% and the inhibition at 10 µM turned out to be 52.7%. Further, in experiment [3], the inhibition at 1 µM worked out at 14.6% and the inhibition at 10 µM worked out at 22.1%.
